{"source": "PubChem BioAssay AID256", "about": "(DTP/NCI, 2004)", "tested_on": "CD2F1 mice, L1210 leukemia ip, survival T/C", "experiment": "NCI In Vivo Anticancer Drug Screen. Data for tumor model L1210 Leukemia (intraperitoneal) in CD2F1 (CDF1) mice", "details": "endpoint: mean survival time, higher = longer survival", "summary_of_the_method": "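Compound-dosed mice with transplantable tumor versus matched vehicle controls; endpoint ratio T/C reported.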", "key": {"[1]": {"details": "dose: 100.0 mg/kg/injection, schedule: Q01DX009 (ip), vehicle: saline with Tween-80"}, "[2]": {"details": "dose: 100.0 mg/kg/injection, schedule: Q04DX003 (ip), vehicle: saline with Tween-80"}, "[3]": {"details": "dose: 200.0 mg/kg/injection, schedule: Q01DX009 (ip), vehicle: saline with Tween-80"}, "[4]": {"details": "dose: 200.0 mg/kg/injection, schedule: Q04DX003 (ip), vehicle: saline with Tween-80"}, "[5]": {"details": "dose: 400.0 mg/kg/injection, schedule: Q04DX003 (ip), vehicle: saline with Tween-80"}, "[6]": {"details": "dose: 25.0 mg/kg/injection, schedule: Q04DX002 (ip), vehicle: saline with Tween-80"}, "[7]": {"details": "dose: 50.0 mg/kg/injection, schedule: Q01DX009 (ip), vehicle: saline with Tween-80"}, "[8]": {"details": "dose: 100.0 mg/kg/injection, schedule: Q01DX009 (ip), vehicle: saline"}, "[9]": {"details": "dose: 200.0 mg/kg/injection, schedule: Q01DX009 (ip), vehicle: saline"}, "[10]": {"details": "dose: 400.0 mg/kg/injection, schedule: Q01DX009 (ip), vehicle: saline"}, "[11]": {"details": "dose: 25.0 mg/kg/injection, schedule: Q04DX003 (ip), vehicle: saline with Tween-80"}, "[12]": {"details": "dose: 50.0 mg/kg/injection, schedule: Q04DX003 (ip), vehicle: saline with Tween-80"}}, "note": "“And” between values parts separate entries of the source, which are not always exact repeats. Identical values can stand only once. Inconclusive results and toxic doses are left out."}
{"smiles": "CCOC(CNc1ccc([N+](=O)[O-])cc1)OCC", "values": [{"measurement": "T/C", "setting": "dose: 100.0 mg/kg/injection, schedule: Q01DX001 (ip), vehicle: saline with Tween-80", "value": "95 % of control and 100 % of control"}, {"measurement": "T/C", "setting": "[1]", "value": "100 % of control and 106 % of control"}, {"measurement": "T/C", "setting": "dose: 100.0 mg/kg/injection, schedule: Q04DX002 (ip), vehicle: saline with Tween-80", "value": "100 % of control"}, {"measurement": "T/C", "setting": "[2]", "value": "94 % of control"}, {"measurement": "T/C", "setting": "dose: 200.0 mg/kg/injection, schedule: Q01DX001 (ip), vehicle: saline with Tween-80", "value": "92 % of control and 97 % of control"}, {"measurement": "T/C", "setting": "[3]", "value": "100 % of control and 102 % of control"}, {"measurement": "T/C", "setting": "dose: 200.0 mg/kg/injection, schedule: Q04DX002 (ip), vehicle: saline with Tween-80", "value": "98 % of control"}, {"measurement": "T/C", "setting": "[4]", "value": "104 % of control"}, {"measurement": "T/C", "setting": "dose: 400.0 mg/kg/injection, schedule: Q01DX001 (ip), vehicle: saline with Tween-80", "value": "101 % of control and 103 % of control"}, {"measurement": "T/C", "setting": "dose: 400.0 mg/kg/injection, schedule: Q01DX009 (ip), vehicle: saline with Tween-80", "value": "120 % of control and 111 % of control"}, {"measurement": "T/C", "setting": "dose: 400.0 mg/kg/injection, schedule: Q04DX002 (ip), vehicle: saline with Tween-80", "value": "100 % of control"}, {"measurement": "T/C", "setting": "[5]", "value": "96 % of control"}]}
{"smiles": "CC(/C=N/O)=N\\O.CC(/C=N/O)=N\\O.[Pd]", "values": [{"measurement": "T/C", "setting": "dose: 1.56 mg/kg/injection, schedule: Q01DX009 (ip), vehicle: saline with Tween-80", "value": "98 % of control"}, {"measurement": "T/C", "setting": "dose: 1.56 mg/kg/injection, schedule: Q04DX002 (ip), vehicle: saline with Tween-80", "value": "100 % of control"}, {"measurement": "T/C", "setting": "dose: 3.13 mg/kg/injection, schedule: Q01DX009 (ip), vehicle: saline with Tween-80", "value": "95 % of control"}, {"measurement": "T/C", "setting": "dose: 3.13 mg/kg/injection, schedule: Q04DX002 (ip), vehicle: saline with Tween-80", "value": "95 % of control"}, {"measurement": "T/C", "setting": "dose: 6.25 mg/kg/injection, schedule: Q04DX002 (ip), vehicle: saline with Tween-80", "value": "88 % of control"}, {"measurement": "T/C", "setting": "[6]", "value": "102 % of control"}]}
{"smiles": "CC(=O)Nc1ccncn1", "values": [{"measurement": "T/C", "setting": "[6]", "value": "97 % of control"}, {"measurement": "T/C", "setting": "dose: 50.0 mg/kg/injection, schedule: Q04DX002 (ip), vehicle: saline with Tween-80", "value": "100 % of control"}]}
{"smiles": "CCOC(=O)C[n+]1ccccc1", "values": [{"measurement": "T/C", "setting": "dose: 100.0 mg/kg/injection, schedule: Q04DX003 (ip), vehicle: saline", "value": "107 % of control and 95 % of control"}, {"measurement": "T/C", "setting": "dose: 200.0 mg/kg/injection, schedule: Q04DX003 (ip), vehicle: saline", "value": "90 % of control and 89 % of control"}]}
{"smiles": "CCOC(=O)c1[nH]cnc1/N=N/N(C)C", "values": [{"measurement": "T/C", "setting": "dose: 16.5 mg/kg/injection, schedule: Q01DX009 (ip), vehicle: saline with Tween-80", "value": "120 % of control"}, {"measurement": "T/C", "setting": "[1]", "value": "109 % of control"}, {"measurement": "T/C", "setting": "[2]", "value": "105 % of control"}]}
{"smiles": "O=C(O)c1ccc(C(=O)O)s1.[NH-]C1CCCCC1[NH-].[Pt+2]", "values": [{"measurement": "T/C", "setting": "dose: 2.5 mg/kg/injection, schedule: Q04DX003 (ip), vehicle: dextrose", "value": "113 % of control"}, {"measurement": "T/C", "setting": "dose: 5.0 mg/kg/injection, schedule: Q04DX003 (ip), vehicle: dextrose", "value": "118 % of control"}, {"measurement": "T/C", "setting": "dose: 20.0 mg/kg/injection, schedule: Q04DX003 (ip), vehicle: dextrose", "value": "113 % of control"}]}
{"smiles": "COc1cc(OC)c(NC(=O)Nc2ccc(N(C)C(C)=O)cc2)cc1Cl", "values": [{"measurement": "T/C", "setting": "[7]", "value": "88 % of control"}, {"measurement": "T/C", "setting": "[1]", "value": "88 % of control"}, {"measurement": "T/C", "setting": "[3]", "value": "88 % of control"}]}
{"smiles": "O=C(O/N=C(\\CN1CCOCC1)c1ccc(Cl)cc1)c1ccccc1", "values": [{"measurement": "T/C", "setting": "dose: 100.0 mg/kg/injection, schedule: Q04DX003 (ip), vehicle: Klucel (hydroxypropylcellulose) (HPC)", "value": "86 % of control"}, {"measurement": "T/C", "setting": "dose: 200.0 mg/kg/injection, schedule: Q04DX003 (ip), vehicle: Klucel (hydroxypropylcellulose) (HPC)", "value": "90 % of control"}, {"measurement": "T/C", "setting": "dose: 400.0 mg/kg/injection, schedule: Q04DX003 (ip), vehicle: Klucel (hydroxypropylcellulose) (HPC)", "value": "94 % of control"}]}
{"smiles": "OCC1(CO)COC2(CCCCC2)N1", "values": [{"measurement": "T/C", "setting": "dose: 12.5 mg/kg/injection, schedule: Q01DX009 (ip), vehicle: saline", "value": "101 % of control and 103 % of control"}, {"measurement": "T/C", "setting": "dose: 25.0 mg/kg/injection, schedule: Q01DX009 (ip), vehicle: saline", "value": "103 % of control and 104 % of control"}, {"measurement": "T/C", "setting": "dose: 50.0 mg/kg/injection, schedule: Q01DX009 (ip), vehicle: saline", "value": "98 % of control"}, {"measurement": "T/C", "setting": "[8]", "value": "95 % of control and 103 % of control"}, {"measurement": "T/C", "setting": "[9]", "value": "97 % of control"}, {"measurement": "T/C", "setting": "[10]", "value": "95 % of control and 104 % of control"}]}
{"smiles": "c1ccc(CCc2ccccn2)nc1", "values": [{"measurement": "T/C", "setting": "[11]", "value": "105 % of control"}, {"measurement": "T/C", "setting": "[12]", "value": "100 % of control"}, {"measurement": "T/C", "setting": "[2]", "value": "91 % of control and 103 % of control"}]}
{"smiles": "O=C(O)c1nccc2c([N+](=O)[O-])cccc12", "values": [{"measurement": "T/C", "setting": "dose: 100.0 mg/kg/injection, schedule: Q01DX009 (ip), vehicle: acetone", "value": "95 % of control"}, {"measurement": "T/C", "setting": "dose: 200.0 mg/kg/injection, schedule: Q01DX009 (ip), vehicle: acetone", "value": "95 % of control"}, {"measurement": "T/C", "setting": "dose: 400.0 mg/kg/injection, schedule: Q01DX009 (ip), vehicle: acetone", "value": "98 % of control"}]}
{"smiles": "Clc1ccc(/C(=C(\\Br)c2ccccc2)c2ccccc2)cc1", "values": [{"measurement": "T/C", "setting": "[2]", "value": "102 % of control and 100 % of control"}, {"measurement": "T/C", "setting": "[4]", "value": "100 % of control and 102 % of control"}, {"measurement": "T/C", "setting": "[5]", "value": "96 % of control and 94 % of control"}]}
{"smiles": "CCCCCCCCCCCC[n+]1ccc(C#N)cc1", "values": [{"measurement": "T/C", "setting": "dose: 9.38 mg/kg/injection, schedule: Q01DX001 (ip), vehicle: saline", "value": "103 % of control"}, {"measurement": "T/C", "setting": "dose: 18.75 mg/kg/injection, schedule: Q01DX001 (ip), vehicle: saline", "value": "94 % of control"}]}
{"smiles": "CCCOP(=O)(CCl)OCCC", "values": [{"measurement": "T/C", "setting": "[8]", "value": "95 % of control"}, {"measurement": "T/C", "setting": "[9]", "value": "100 % of control"}, {"measurement": "T/C", "setting": "[10]", "value": "97 % of control"}]}
{"smiles": "CN(C)c1ccc(/C=N/NC(=O)c2ccccc2NC(=O)c2ccccc2Cl)cc1", "values": [{"measurement": "T/C", "setting": "dose: 50.0 mg/kg/injection, schedule: Q01DX009 (ip), vehicle: Klucel (hydroxypropylcellulose) (HPC)", "value": "87 % of control"}, {"measurement": "T/C", "setting": "dose: 100.0 mg/kg/injection, schedule: Q01DX009 (ip), vehicle: Klucel (hydroxypropylcellulose) (HPC)", "value": "94 % of control"}, {"measurement": "T/C", "setting": "dose: 200.0 mg/kg/injection, schedule: Q01DX009 (ip), vehicle: Klucel (hydroxypropylcellulose) (HPC)", "value": "91 % of control"}]}
{"smiles": "COc1cc(OC)c(NC(=O)Nc2ccc(CCO)cc2)cc1Cl", "values": [{"measurement": "T/C", "setting": "[7]", "value": "93 % of control"}, {"measurement": "T/C", "setting": "[1]", "value": "86 % of control"}, {"measurement": "T/C", "setting": "[3]", "value": "93 % of control"}]}
{"smiles": "O=C(C=C(C(F)(F)F)C(F)(F)F)c1ccco1", "values": [{"measurement": "T/C", "setting": "dose: 12.5 mg/kg/injection, schedule: Q04DX003 (ip), vehicle: saline with Tween-80", "value": "105 % of control"}, {"measurement": "T/C", "setting": "[11]", "value": "102 % of control"}, {"measurement": "T/C", "setting": "[12]", "value": "94 % of control"}]}
{"smiles": "CS(=O)(=O)Nc1ccc(Nc2c3ccccc3nc3cc([N+](=O)[O-])ccc23)cc1", "values": [{"measurement": "T/C", "setting": "dose: 7.0 mg/kg/injection, schedule: Q01DX009 (ip), vehicle: saline", "value": "237 % of control"}, {"measurement": "T/C", "setting": "dose: 10.0 mg/kg/injection, schedule: Q01DX009 (ip), vehicle: saline", "value": "155 % of control"}, {"measurement": "T/C", "setting": "dose: 12.5 mg/kg/injection, schedule: Q01DX001 (ip), vehicle: saline", "value": "175 % of control"}, {"measurement": "T/C", "setting": "dose: 25.0 mg/kg/injection, schedule: Q01DX001 (ip), vehicle: saline", "value": "195 % of control"}, {"measurement": "T/C", "setting": "dose: 50.0 mg/kg/injection, schedule: Q01DX001 (ip), vehicle: saline", "value": "170 % of control"}, {"measurement": "T/C", "setting": "dose: 100.0 mg/kg/injection, schedule: Q01DX001 (ip), vehicle: saline", "value": "116 % of control"}]}
{"smiles": "CC(CP(=O)(c1ccccc1)c1ccccc1)C(=O)O", "note": "(configuration not stated)", "values": [{"measurement": "T/C", "setting": "[2]", "value": "92 % of control"}, {"measurement": "T/C", "setting": "[4]", "value": "95 % of control"}, {"measurement": "T/C", "setting": "[5]", "value": "101 % of control"}]}
